The source of these data is patent publication US20040023264A1, “Method for determining the peptide hormone activities or the steroid hormone activities of a material or substance mixture” (priority 2000, published 2004).

The target in assay [1] is T1, glucocorticoid receptor (Rattus norvegicus, UniProt P06536).
T1 sequence (P06536 1-795): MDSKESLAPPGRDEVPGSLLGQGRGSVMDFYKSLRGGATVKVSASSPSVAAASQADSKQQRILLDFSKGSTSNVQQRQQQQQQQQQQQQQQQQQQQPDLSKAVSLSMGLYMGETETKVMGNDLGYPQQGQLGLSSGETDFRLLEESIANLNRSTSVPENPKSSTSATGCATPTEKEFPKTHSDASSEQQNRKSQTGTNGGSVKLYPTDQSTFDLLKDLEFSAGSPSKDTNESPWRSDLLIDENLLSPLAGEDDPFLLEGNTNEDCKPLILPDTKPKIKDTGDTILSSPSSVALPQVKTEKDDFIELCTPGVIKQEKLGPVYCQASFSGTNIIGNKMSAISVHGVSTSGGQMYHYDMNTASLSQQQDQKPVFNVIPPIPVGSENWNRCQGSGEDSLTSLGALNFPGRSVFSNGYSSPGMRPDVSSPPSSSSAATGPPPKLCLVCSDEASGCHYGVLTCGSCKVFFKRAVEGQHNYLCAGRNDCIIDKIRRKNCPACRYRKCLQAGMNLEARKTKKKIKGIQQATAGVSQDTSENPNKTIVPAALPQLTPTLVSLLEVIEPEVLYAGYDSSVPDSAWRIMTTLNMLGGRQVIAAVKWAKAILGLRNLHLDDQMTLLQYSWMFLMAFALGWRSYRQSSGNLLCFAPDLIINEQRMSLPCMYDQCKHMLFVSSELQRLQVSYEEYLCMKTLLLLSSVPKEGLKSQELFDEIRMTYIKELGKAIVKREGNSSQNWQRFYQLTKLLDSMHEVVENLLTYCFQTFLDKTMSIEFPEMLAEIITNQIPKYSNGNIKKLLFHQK
Nature of the assay: Glucocorticoid activity bioassay, CC1 cells cotransfected with GRE2-TATA-Luc and glucocorticoid receptor expression plasmid. It counts as cell-based. The conditions noted are these: for glucocorticoid activity (luciferase induction) / corticosteroid (glucocorticoid) activity of corticosterone:BSA derivatives: CC1 cells; for glucocorticoid activity (luciferase induction): different concentrations, induction time 24 h; for corticosteroid (glucocorticoid) activity of corticosterone:BSA derivatives: each 200 nM, various induction times. Also noted: expressed in transfected cells; host or cells: CC1 cells (permanent rat liver cell line), transiently cotransfected with pSTC-rGR and GRE2-TATA-Luc. The protocol: These cell lines contain endogenous glucocorticoid receptors. Here, steroid concentration—in this case corticosterone concentration—determines the extent of glucocorticoid activity. […] Induction time: 24 h (see also example 12).
(§1) Thus, the following examples always concern transit ntly cotransfected CC1or MH 3924 cell.

The target of assay [2] is T1, glucocorticoid receptor. The protocol: These cell lines contain endogenous glucocorticoid receptors. Here, steroid concentration—in this case corticosterone concentration—determines the extent of glucocorticoid activity. […]
as §1
Determination was carried out as in example 7, however, with MH 3924 cells.

The target in assay [3] is T1, glucocorticoid receptor. The note with it: CC1 cells.
Assay [4] concerns androgen receptors (AR). In words: Androgen induced luciferase activity in transfected human genital skin fibroblasts (GSF). The note with it: mibolerone 2 nM, 24 h incubation; three Luc constructs; strength depends on origin of fibroblasts. It counts as cell-based. An excerpt:
FIG. 1: Androgen induced luciferase activity in human genital skin fibroblasts (GSF) in culture transfected with three different luciferase gen constructs of different androgen sensitivity (“Lu ”): PRE2-Tk-Luc, MMTV-Luc, GRE2-TATA-Luc
The only steroid hormone receptors present in GSF are androgen receptors (AR). Mibolerone, which is used in this experiment, is a synthetic androgen with anabolic effectiveness. […] Obviously, GE2-TATA-Luc is the most sensitive reporter gene construct of the ones used here (for comparison, see also example 10 with a MMTV promotor reporter gene construct as well as FIG. 10).

For assay [5], the target named is androgen receptor (Homo sapiens, UniProt P10275). The conditions noted are these: HeLa cells, induction time 24 h.
From the text: Transfection method in this experiment was the DOTAP method (Boehringer, Mannheim, Germany).
This androgen receptor free cell line was transiently cotransfected with GRE2-TATA-Luc and a recombinant androgen receptor expression plasmid.

Bounds are passed on as bounds.

Chain of androgen receptor (P10275 whole entry): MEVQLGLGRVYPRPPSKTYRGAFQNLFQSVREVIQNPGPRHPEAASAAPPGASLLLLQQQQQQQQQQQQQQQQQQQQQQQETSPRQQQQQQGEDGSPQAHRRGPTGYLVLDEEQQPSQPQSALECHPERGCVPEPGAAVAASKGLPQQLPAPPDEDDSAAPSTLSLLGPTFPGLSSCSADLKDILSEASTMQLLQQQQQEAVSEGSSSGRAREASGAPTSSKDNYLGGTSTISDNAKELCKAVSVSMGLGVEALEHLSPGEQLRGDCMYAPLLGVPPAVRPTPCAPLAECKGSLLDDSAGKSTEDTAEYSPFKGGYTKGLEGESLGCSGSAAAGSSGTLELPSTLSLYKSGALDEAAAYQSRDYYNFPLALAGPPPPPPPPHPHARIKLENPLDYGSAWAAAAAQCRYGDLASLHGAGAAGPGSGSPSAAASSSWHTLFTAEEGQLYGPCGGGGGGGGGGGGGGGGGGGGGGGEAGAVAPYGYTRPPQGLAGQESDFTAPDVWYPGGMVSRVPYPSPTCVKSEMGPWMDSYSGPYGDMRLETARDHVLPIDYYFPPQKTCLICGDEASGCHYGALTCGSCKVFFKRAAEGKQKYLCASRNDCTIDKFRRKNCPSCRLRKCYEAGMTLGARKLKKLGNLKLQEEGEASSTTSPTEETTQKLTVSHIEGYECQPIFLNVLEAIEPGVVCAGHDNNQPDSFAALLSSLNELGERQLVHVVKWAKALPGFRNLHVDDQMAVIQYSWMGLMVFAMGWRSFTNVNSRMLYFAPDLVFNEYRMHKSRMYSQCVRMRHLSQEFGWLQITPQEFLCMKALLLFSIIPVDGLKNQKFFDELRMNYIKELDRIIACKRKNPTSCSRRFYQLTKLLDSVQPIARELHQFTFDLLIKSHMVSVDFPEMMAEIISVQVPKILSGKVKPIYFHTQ

For the compound `C[C@]12CCC(=O)C=C1CC[C@@H]1[C@@H]2CC[C@@]2(C)[C@H]1CC[C@]2(O)C(=O)CO` [cortexolone, 17α-, 21-dihydroxy-progesterone], the “glucocorticoid activity (luciferase induction)” value in assay [1] was “significant glucocorticoid activity”. Consider `C[C@]12C[C@H](O)[C@H]3[C@@H](CCC4=CC(=O)CC[C@@]43C)[C@@H]1CC[C@@H]2C(=O)CO` [corticosterone], for which the “response of MH 3924 cells compared with response of CC1 cells” value in assay [2] (as in example 7 (24 h)) is “distinctly more sensitive”. Besides, the “glucocorticoid activity (luciferase induction)” value in assay [1] is “very active”. Regarding `CC#C[C@]1(O)CC[C@H]2[C@@H]3CCC4=CC(=O)CCC4=C3[C@@H](c3ccc(N(C)C)cc3)C[C@@]21C` [RU 38486, mifepristone], in assay [3], the “blocking of luciferase inducing effect of corticosterone and 21-hemisuccinat-corticosterone:BSA (glucocorticoid antagonism)” value is recorded as “extensively blocked”. In the case of `C[C@@H]1CC2=CC(=O)CC[C@@H]2[C@H]2CC[C@@]3(C)[C@@H](CC[C@]3(C)O)[C@@H]21` [Mibolerone], in assay [4], the “luciferase activity induced by androgen” value was “luciferase activity of varying strength”.

With `C[C@]1(O)CC[C@H]2[C@@H]3CCC4=CC(=O)CCC4=C3C=C[C@@]21C` [R1881, methyltrienolone], in assay [5], the “concentration at which hormone activity (anabolic potency) can already be detected” value is 10 pM. On to 3-CMO-corticosterone:BSA [3:BSA], for which the “corticosteroid (glucocorticoid) activity of corticosterone:BSA derivatives” value in assay [1] is “weak”. Turning to 21-hemisuccinat-corticosterone:BSA, in assay [2] (MH 3924 cells, short term induction of 10 to 30 min (FIG. 4a)), the “concentration at which luciferase induction is easily measurable” value is not above 50 nM. The “corticosteroid (glucocorticoid) activity of corticosterone:BSA derivatives” value in assay [1] is “strong”. The “luciferase induction by corticosterone derivative bound to BSA (glucocorticoid activity)” value in assay [1] (cotransfected CC1 cells) is “luciferase is induced”.
